Laboratory results reported in US5310930A, “Benzofuranylimidazole derivatives, a process for their preparation and therapeutical compositions containing the same” (priority 1991, dated 1994).
Like-named read-outs stand apart in the source and are kept apart here.

How the values were obtained:
[1] = Indian J. Chem. 1979, 18B, 254; cited from earlier work
[2] = Indian J. Chem. 1979, 18B, 254; cited from earlier work; remark: listed apart in the source
alpha2-adrenoceptor = target: T1, alpha2-adrenoceptor (Rattus norvegicus, UniProt P22909); assay: Displacement of 3H-clonidine (2 nM) (alpha2-adrenoceptor affinity); assay type: binding
T1 sequence (P22909 1-465): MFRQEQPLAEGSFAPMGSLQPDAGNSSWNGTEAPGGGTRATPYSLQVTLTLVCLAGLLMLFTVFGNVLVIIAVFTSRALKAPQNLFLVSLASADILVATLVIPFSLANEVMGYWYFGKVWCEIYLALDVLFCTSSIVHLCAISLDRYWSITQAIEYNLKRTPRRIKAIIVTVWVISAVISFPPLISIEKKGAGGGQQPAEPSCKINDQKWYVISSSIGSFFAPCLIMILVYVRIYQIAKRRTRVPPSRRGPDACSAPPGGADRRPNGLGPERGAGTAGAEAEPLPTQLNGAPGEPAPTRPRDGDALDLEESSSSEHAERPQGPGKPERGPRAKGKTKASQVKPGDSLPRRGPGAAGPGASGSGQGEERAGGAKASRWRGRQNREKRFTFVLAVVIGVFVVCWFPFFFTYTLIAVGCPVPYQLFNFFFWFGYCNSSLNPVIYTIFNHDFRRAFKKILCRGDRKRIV

alpha1-adrenoceptor = assay: Displacement of 3H-prazosin (0.5 nM) (alpha1-adrenoceptor affinity); assay type: binding; details: rat cerebral cortex, mean of 10 experiments
Method: (§1) Initial biological evaluation of alpha1 - and alpha2 -adrenoceptor and imidazoline preferring receptor (IR) affinities and selectivities in homogenized rat cerebral cortex were assessed by determining the Ki values of the compounds to displace ^3 H-prazosin ^3 H-clonidine as well as ^3 H-idazoxan in the presence of (-)-adrenaline according to the method of Olmos et al. (J. Neurochem. 1991, 57:1811-1813).
(§2) This in vitro model is particularly useful as an initial screening for studying the affinity and the selectivity of these compounds on the imidazoline receptors.

[3] = target: imidazoline preferring receptor (IR); assay: Displacement of 3H-idazoxan (4 nM) in the presence of (-)-adrenaline (IR affinity); assay type: binding, rat; details: for Ki: 3H-idazoxan (4 nM), (-)-adrenaline (10^-6 M), rat cerebral cortex, mean of 10 experiments; for Selectivity IR/α1: selectivity ratio for IR/alpha1 from Ki values; for Selectivity IR/α2: selectivity ratio for IR/alpha2 from Ki values
Method: as §1, §2

rats = assay: In vivo feeding behavior in rats (cumulative food intake after i.p. administration); parameters: species or system rat; details: for hyperphagic potency relative to idazoxan: 25 mg/kg i.p. versus idazoxan 10 mg/kg i.p.; for acute hyperphagic effect respect to the control group / cumulative food intake: rats; for acute hyperphagic effect respect to the control group: 1-4 h, P<0.05; for cumulative food intake: N=5
Text: At present, certain compounds of the invention (Examples 1,2 and 3) have shown an in vivo CNS functional activity, such as: feeding behavior in rats.

[4] = 3H-clonidine (2 nM), rat cerebral cortex, mean of 10 experiments, read-out: Affinity (Ki) Alpha2

For `c1ccc2oc(C3=NCCN3)cc2c1`, the antibacterial activity [1] is given as “without showing any noteworthy activity” and the antifungal activity [2] is given as “without showing any noteworthy activity”.

In the case of `Cl.c1ccc2oc(-c3ncc[nH]3)cc2c1` [Example 1, 2-(benzofuran-2-yl)imidazole hydrochloride], the Ki (alpha2-adrenoceptor) is reported as 100 µM, the Ki (alpha1-adrenoceptor) is reported as 36.5 µM and the Ki [3] is reported as 0.089 µM. The “Selectivity IR/α1” value [3] was 410, the “Selectivity IR/α2” value [3] was 1 125 and the “hyperphagic potency relative to idazoxan” value (rats) was “lower in potency than those induced by idazoxan”. For the same compound, the “acute hyperphagic effect respect to the control group” value (rats; 25 mg/kg i.p.) was 7-10 fold, the cumulative food intake (rats; 25 mg/kg i.p., 1 h) was 3.0 ± 2.0 g/kg body weight and the cumulative food intake (rats; 25 mg/kg i.p., 2 h) was 4.0 ± 2.1 g/kg body weight. It also gave a cumulative food intake (rats; 25 mg/kg i.p., 4 h) of 4.8 ± 2.0 g/kg body weight.

Work on `Cl.Cn1ccnc1-c1cc2ccccc2o1` [Example 2, 1-methyl-2-(benzofuran-2-yl)imidazole hydrochloride] yielded a Ki (alpha2-adrenoceptor; [4]) of 62.1 µM, a Ki (alpha1-adrenoceptor) of 26.2 µM and a Ki [3] of 0.015 µM. For the same compound, the “potency for the I2-imidazoline receptors relative to idazoxan” value ([3]; data derived from binding studies) was “equally as potent as idazoxan”, the “selectivity relative to idazoxan” value ([3]; data derived from binding studies (Table 1)) was “much more selective” and the Selectivity IR/α1 [3] was 1740. The Selectivity IR/α2 [3] was 4140, the “hyperphagic potency relative to idazoxan” value (rats) was “lower in potency than those induced by idazoxan” and the “acute hyperphagic effect respect to the control group” value (rats; 25 mg/kg i.p.) was 7-10 fold. It also gave a cumulative food intake (rats; 25 mg/kg i.p., 1 h) of 2.7 ± 1.5 g/kg body weight, a cumulative food intake (rats; 25 mg/kg i.p., 2 h) of 3.0 ± 1.5 g/kg body weight and a cumulative food intake (rats; 25 mg/kg i.p., 4 h) of 3.6 ± 1.4 g/kg body weight.

With `COc1ccc2cc(-c3ncc[nH]3)oc2c1.Cl` [Example 3, 2-(6-methoxybenzofuran-2-yl)imidazole hydrochloride] the Ki (alpha2-adrenoceptor; [4]) was 56.1 µM, the Ki (alpha1-adrenoceptor) was 17.8 µM and the Ki [3] was 0.151 µM. The “Selectivity IR/α1” value [3] was 118, the “Selectivity IR/α2” value [3] was 372 and the “hyperphagic potency relative to idazoxan” value (rats) was “lower in potency than those induced by idazoxan”. For the same compound, the “acute hyperphagic effect respect to the control group” value (rats; 25 mg/kg i.p.) was 7-10 fold.

With `Brc1ccc2oc(-c3ncc[nH]3)cc2c1.Cl` [Example 6, 2-(5-bromobenzofuran-2-yl)imidazole hydrochloride] the Ki (alpha2-adrenoceptor; [4]) was 68.4 µM, the Ki (alpha1-adrenoceptor) was 33.3 µM and the Ki [3] was 0.117 µM. The “Selectivity IR/α1” value [3] was 284 and the “Selectivity IR/α2” value [3] was 584.

With `COc1ccc2oc(-c3ncc[nH]3)cc2c1.Cl` [Example 7, 2-(5-methoxybenzofuran-2-yl)imidazole hydrochloride] the Ki (alpha2-adrenoceptor; [4]) was 98.7 µM, the Ki (alpha1-adrenoceptor) was 4.41 µM and the Ki [3] was 0.163 µM. The “Selectivity IR/α1” value [3] was 27 and the “Selectivity IR/α2” value [3] was 605.

`CCn1ccnc1-c1cc2ccc(OC)cc2o1.Cl` [Example 9, 1-ethyl-2-(6-methoxybenzofuran-2-yl)imidazole hydrochloride] gave a Ki (alpha2-adrenoceptor; [4]) of 71.3 µM, a Ki (alpha1-adrenoceptor) of 22.6 µM and a Ki [3] of 0.123 µM. For the same compound, the “Selectivity IR/α1” value [3] was 184 and the “Selectivity IR/α2” value [3] was 580.

For `c1ccc2c(c1)OCC(C1=NCCN1)O2` (stereo not drawn) [Idazoxan, reference compound], the Ki (alpha1-adrenoceptor) was 0.091 µM, the Ki [3] was 0.014 µM and the cumulative food intake (rats; 10 mg/kg i.p., 1 h) was 3.7 ± 1.2 g/kg body weight. The cumulative food intake (rats; 10 mg/kg i.p., 2 h) was 5.6 ± 2.1 g/kg body weight and the cumulative food intake (rats; 10 mg/kg i.p., 4 h) was 7.4 ± 2.3 g/kg body weight.

In the case of `COC1(C2=NCCN2)COc2ccccc2O1` (stereo not drawn) [RX 821002, reference compound], the Ki (alpha2-adrenoceptor; [4]) is reported as 0.0007 µM, the Ki [3] is reported as 44.9 µM and the “Selectivity IR/α2” value [3] is reported as 0.00002.
